Assay results published in patent publication EP0392976A1, “Monoclonal antibodies to tetracyclic compounds, processes for their production, and applications” (CIBA-GEIGY AG, priority 1989, dated 1990).
Where a name gives a salt, the structure may show the parent alone. Read-outs that look alike come from different tables or passages of the source.

What was measured:
Assay in all cases: inhibition enzyme immunoassay: inhibition of MAb binding to surface bound R-(-)-oxaprotiline-mucin conjugate
Parameters in all cases: species or system mouse
MAb 1225S93.2 = conditions: for IC50: read-out: IC₅₀
Method: (§1) The affinities of the monoclonal antibodies of the invention to R-(-)-oxaprotiline can for example be determined in an inhibition enzyme immunoassay according to Friguet et al. (J. Immunol. Methods 77, 305, 1985) wherein the monoclonal antibody to be tested is preincubated with R-(-)-oxaprotiline and, in a second step, exposed to a solid phase coated with an adsorbable conjugate of R-(-)-oxaprotiline, e.g. a protein conjugate. The fraction of the monoclonal antibody not engaged in immunocomplexes binds to the solid phase and is quantified by a secondary antibody-enzyme conjugate directed against the monoclonal antibody. The affinities are expressed as IC₅₀ (inhibition concentration) values, i.e. the concentration of free antigen causing a 50 % inhibition of antibody binding to the solid phase antigen.
(§2) This can be done, for example, in an inhibition enzyme immunoassay wherein the monoclonal antibodies of the invention are preincubated with any of the soluble compounds listed above and the incubation mixture is then tested in the enzyme immunoassay described above.
(§3) The conjugate solution (0.66 mg/ml) is diluted 1000-fold in coating buffer pH 9.8 (477 mg sodium carbonate, 897 mg sodium hydrogen carbonate, 60 mg sodium azide, 300 ml distilled water) and incubated in the wells of a microtitre plate for 2 days at 4°C. The wells are washed three times with PBS containing Tween 20 (Sigma, 0.1 %). Residual adsorption sites on the plate are saturated by incubation with 100 µl of PBS/Tween 20 for 1 h. 100 µl of a solution to be tested for the presence of antibodies to R-(-)-oxaprotiline are incubated in the wells for 1 h at room temperature. After washing three times with PBS/Tween 20, an alkaline phosphatase conjugated anti-mouse IgG antiserum (Sigma) is added in a 1000-fold dilution for 1 h at 37°C. The microtitre plate is washed five times with PBS/Tween 20, and the enzyme-conjugated bound antiserum developed with an alkaline phosphatase substrate consisting of disodium p-nitrophenylphosphate (1 mg/ml; Sigma) in diethanolamine buffer pH 9.8. The substrate gives a yellow coloration which is measured with a colorimeter (Titertek Multiskan) at a wave length of 405 nm after 60 min.
(§4) The assay is carried out as described in the following.
(§5) The capacity of free R-(-)-oxaprotiline and of a number of compounds which are structurally analogous to R-(-)-oxaprotiline to inhibit the binding of the monoclonal antibodies of the invention to the antigen is determined in an inhibition enzyme immunoassay essentially as described in example 3.2. The MAbs are preincubated with free R-(-)-oxaprotiline and with various structural analogues, respectively, instead of with the test compounds of example 3.2.

MAb 1228P63.1 = conditions: for IC50: read-out: IC₅₀
Method: as §1, §2, §3, §4, §5

MAb 1219S78.6 = conditions: for IC50: read-out: IC₅₀
Method: as §1, §2, §3, §4, §5

MAb 1219S59.11 = conditions: for IC50: read-out: IC₅₀
Method: as §1, §2, §3, §4, §5

MAb 1226S31.3 = test system: MAb 1226S31.3
Method: as §1, §2, §3
The capacity of a number of therapeutic drugs some of which are used in combination with antidepressants and of biogenic amines to inhibit the binding of the monoclonal antibodies of the invention to the antigen is determined in a two-step inhibition enzyme immunoassay to establish the selectivity of the monoclonal antibodies to the tested compounds.
as §4, §5

[1] = Mab 1226S31.3, therapeutic drugs and biogenic amines, 1 µM-150 pM, preincubated overnight, read-out: IC50

**Q.** Which results are given for CNCC(O)CC12CCC(c3ccccc31)c1ccccc12 (racemic) [compound 3, 1-(2-hydroxy-3-methyl-amino-propyl)-dibenzo-[b,e]bicyclo[2.2.2]-octadiene-hydro-chloride]?
**A.** rel. affinity (MAb 1225S93.2): 1.3; IC50 (MAb 1225S93.2; MAb 1225S93.2): 0.475 nM; rel. affinity (MAb 1228P63.1): 2.3; IC50 (MAb 1228P63.1; MAb 1228P63.1): 1.72 nM; IC50 relative to reference compound (fold) (MAb 1219S78.6): 1.7; IC50 (MAb 1219S78.6; MAb 1219S78.6): 0.515 nM; rel. affinity (MAb 1219S59.11): 2.6; IC50 (MAb 1219S59.11; MAb 1219S59.11): 0.75 nM; rel. affinity (MAb 1226S31.3): 0.5; IC50 (MAb 1226S31.3; MAb 1226S31.3, read-out: IC₅₀): 3.09 nM

**Q.** Which IC50 (MAb 1226S31.3; [1]) does the source give for CNCC(O)c1ccc(O)c(O)c1 (stereo not drawn) [Epinephrin, 4-[1-hydroxy-2-(methyl-amino)-ethyl]-1,2-benzene-diol] here?
**A.** Its IC50 is > 1000 nM.

**Q.** Which IC50 (MAb 1226S31.3; [1]) does the source give for NCCc1c[nH]cn1 [Histamine, 1H-imidazole-4-ethane-amine] here?
**A.** The IC50 was > 1000 nM.

**Q.** How did the IC50 (MAb 1226S31.3; [1]) turn out when NCC(O)c1ccc(O)c(O)c1 [L-Norepinephrin, 4-[2-amino-1-hydroxy-ethyl]-1,2-benzenediol] was run?
**A.** The IC50 was > 1000 nM.

**Q.** Which rel. affinity (MAb 1225S93.2; MAb 1225S93.2, derived from IC50, compound 1 = 1) does the source give for CNC[C@H](O)CC12CCC(c3ccccc31)c1ccccc12 [compound 1] here?
**A.** The rel. affinity was 1.

**Q.** What about the IC50 (MAb 1225S93.2; MAb 1225S93.2) of the same molecule?
**A.** Its IC50 is 0.37 nM.

**Q.** And the rel. affinity (MAb 1228P63.1; MAb 1228P63.1, derived from IC50, compound 1 = 1)?
**A.** Its rel. affinity is 1.

**Q.** What about the IC50 (MAb 1228P63.1; MAb 1228P63.1) of the same molecule?
**A.** The IC50 was 0.75 nM.

**Q.** What about the “IC50 relative to reference compound (fold)” value (MAb 1219S78.6; MAb 1219S78.6, derived from IC50, compound 1 = 1) of the same molecule?
**A.** Its value is 1.

**Q.** And the IC50 (MAb 1219S78.6; MAb 1219S78.6)?
**A.** The IC50 was 0.305 nM.

**Q.** And the “IC50 relative to reference compound (higher = weaker binding)” value (MAb 1219S59.11; MAb 1219S59.11, derived from IC50, compound 1 = 1)?
**A.** Its value is 1.

**Q.** And the IC50 (MAb 1219S59.11; MAb 1219S59.11)?
**A.** Its IC50 is 0.29 nM.

**Q.** What about the rel. affinity (MAb 1226S31.3; MAb 1226S31.3, derived from IC50, compound 1 = 1) of the same molecule?
**A.** The rel. affinity was 1.

**Q.** And the IC50 (MAb 1226S31.3; MAb 1226S31.3, read-out: IC₅₀)?
**A.** Its IC50 is 6.7 nM.

**Q.** What about the IC50 (MAb 1226S31.3; [1]) of the same molecule?
**A.** Its IC50 is 6.7 nM.

**Q.** CNC[C@@H](O)CC12CCC(c3ccccc31)c1ccccc12 [compound 2, S-(+)-1-(2-hydroxy-3-methylamino-propyl)-dibenzo[b,e]bicyclo-[2.2.2]octadiene-hydrochloride] was tested. Which rel. affinity (MAb 1225S93.2) did it give?
**A.** The rel. affinity was 2.3.

**Q.** And the IC50 (MAb 1225S93.2; MAb 1225S93.2)?
**A.** Its IC50 is 0.85 nM.

**Q.** What about the rel. affinity (MAb 1228P63.1) of the same molecule?
**A.** The rel. affinity was 6.5.

**Q.** What about the IC50 (MAb 1228P63.1; MAb 1228P63.1) of the same molecule?
**A.** Its IC50 is 4.9 nM.

**Q.** What about the “IC50 relative to reference compound (fold)” value (MAb 1219S78.6) of the same molecule?
**A.** Its value is 126.2.

**Q.** What about the IC50 (MAb 1219S78.6; MAb 1219S78.6) of the same molecule?
**A.** Its IC50 is 38.5 nM.

**Q.** And the rel. affinity (MAb 1219S59.11)?
**A.** The rel. affinity was 462.0.

**Q.** What about the IC50 (MAb 1219S59.11; MAb 1219S59.11) of the same molecule?
**A.** The IC50 was 134 nM.

**Q.** What about the rel. affinity (MAb 1226S31.3) of the same molecule?
**A.** Its rel. affinity is “∼0.6”.

**Q.** What about the IC50 (MAb 1226S31.3; MAb 1226S31.3, read-out: IC₅₀) of the same molecule?
**A.** Its IC50 is ~4 nM.

**Q.** What does the source list for CNC[C@@H](CC12CCC(c3ccccc31)c1ccccc12)O[C@@H]1O[C@H](C(=O)O)[C@@H](O)[C@H](O)[C@H]1O [compound 4, R-(-)-1-(2-glucuronyl-3-methylamino-propyl)-dibenzo[b,e]bicyclo-[2.2.2]octadiene]?
**A.** rel. affinity (MAb 1225S93.2): 245.9; IC50 (MAb 1225S93.2; MAb 1225S93.2): 91 nM; rel. affinity (MAb 1228P63.1): 68.0; IC50 (MAb 1228P63.1; MAb 1228P63.1): 51 nM; IC50 relative to reference compound (fold) (MAb 1219S78.6): 229.5; IC50 (MAb 1219S78.6; MAb 1219S78.6): 70 nM; rel. affinity (MAb 1219S59.11): 244.8; IC50 (MAb 1219S59.11; MAb 1219S59.11): 71 nM; rel. affinity (MAb 1226S31.3): 4.1; IC50 (MAb 1226S31.3; MAb 1226S31.3, read-out: IC₅₀): 27.5 nM

**Q.** For CNC[C@H](CC12CCC(c3ccccc31)c1ccccc12)O[C@@H]1O[C@H](C(=O)O)[C@@H](O)[C@H](O)[C@H]1O [compound 5, S-(+)-1-(2-glucuronyl-3-methylamino-propyl)-dibenzo[b,e]bicyclo-[2.2.2]octadiene], which rel. affinity (MAb 1225S93.2) is on record?
**A.** The rel. affinity was 429.7.

**Q.** And the IC50 (MAb 1225S93.2; MAb 1225S93.2)?
**A.** Its IC50 is 159 nM.

**Q.** And the rel. affinity (MAb 1228P63.1)?
**A.** The rel. affinity was 562.7.

**Q.** And the IC50 (MAb 1228P63.1; MAb 1228P63.1)?
**A.** Its IC50 is 422 nM.

**Q.** And the “IC50 relative to reference compound (fold)” value (MAb 1219S78.6)?
**A.** The value was >3279.

**Q.** What about the IC50 (MAb 1219S78.6; MAb 1219S78.6) of the same molecule?
**A.** Its IC50 is > 1000 nM.

**Q.** What about the rel. affinity (MAb 1219S59.11) of the same molecule?
**A.** Its rel. affinity is >3448.

**Q.** And the IC50 (MAb 1219S59.11; MAb 1219S59.11)?
**A.** Its IC50 is > 1000 nM.

**Q.** What about the rel. affinity (MAb 1226S31.3) of the same molecule?
**A.** The rel. affinity was 52.7.

**Q.** What about the IC50 (MAb 1226S31.3; MAb 1226S31.3, read-out: IC₅₀) of the same molecule?
**A.** The IC50 was 353 nM.
